One series concerns glutathione (GSH). Briefly: GSH level in HepG2 cell lysate (DTNB method). In kind it is cell-based, human. The settings on record: HepG2 treated at IC50, 48 h. As for the experimental part: (§1) As previously described, with little modification, HepG2 cells were cultured in T25 flask until they reached 30% confluency. […] After treatment, cells were washed by PBS, trypsinized and centrifuged at 10,000 rpm. The formed pellets were washed twice with PBS and lysed in 1 mL ice-cold radio immunoprecipitation assay (RIPA) lysis buffer (50 mM Tris-HCl, pH 8.0, 150 mM NaCl, 1% Triton X-100, 0.5% sodium deoxycholate, 0.1% sodium dodecyl sulfate) and kept on ice for 20 min. Then, the mixture was centrifuged at 15,000 rpm for 15 min to remove any cell debris. The cell lysate was aliquoted and stored at −80 °C for determination of protein using Pierce BCA Protein Assay Kit (Thermo Fisher Scientific, Waltham/Boston, USA) according to manufacturer’s recommendations and determination of other biochemical parameters including EGFR, urokinase Plasminogen Activator (uPA), B-Cell Lymphoma-2 (Bcl-2), heparanase, and oxidative stress markers (glutathione; GSH and malonaldehyde; MDA).
Glutathione levels were determined using GSH Biodiagnostics kit (Cairo, Egypt). The method is based on the reduction of 5,5′dithiobis (2-nitrobenzoic acid) (DTNB) with glutathione (GSH) to produce a yellow compound. The reduced chromogen is directly proportional to GSH concentration and its absorbance was measured at 405 nm.

For the next series, the system named is mice. In words: In vivo acute (14-day) oral toxicity study. From the text:
GPower 3.0.10 software was used to estimate the sample size needed for the experiment and the number of mice per group but, according to the Organization for Economic Cooperation and Development (OECD) Test Guidelines No. 407 (OECD, 2008 and updated 2017) and under the International Academy of Science’s Guide for the Care and Use of Laboratory Animals, as well as the ARRIVE guidelines, to use the least number of mice per group for the acute single dose oral toxicity test.
Animals were divided randomly into nine groups (5 animals per group). Before the experiment, the body weight (BW) of all mice was recorded. All mice were made to fast for 24 h and treated once (day zero) then carefully monitored for 14 days.
Normal control group: mice received saline orally once;
Negative control group: mice received vehicle (DMSO) orally once;
Positive control group: mice were injected with Dox (15 mg/kg BW, i.p.) once.
Isatin-sulfonamide-derivative-compound-treated groups (2a, 3a, 3d and 4b, 4c and 4d) of mice received 250 mg/kg BW of each orally once.
The animals’ BWs were recorded at the end of the 14 days of observation. Blood samples were collected from the retro-orbital plexus and allowed to clot. Sera were prepared by centrifugation at 4000 rpm for 15 min and then kept frozen at − 80 °C for liver and kidney function tests (LFTs and KFTs). Thereafter, mice were deprived of food overnight, euthanized, and sacrificed by cervical dislocation. Liver and kidney tissues were collected, washed with ice-cold saline, and weighed. Excised weighed livers and kidneys were fixed in a suitable buffer for histological examination.
Liver and kidney tissues were fixed in 10% neutral buffered formaldehyde overnight and then embedded in paraffin, […] in serial grades of alcohols, cleared in xylene, and were subjected to […], where 4 μm thick tissue sections were cut by rotatory microtome. Tissue sections were stained with hematoxylin and eosin (H and E) for histological examination using full HD light microscopic imaging system (Leica Microsystems GmbH, Wetzlar, Germany). Standard procedures for sample fixation and staining were done as previously described.

The test system of the next series is HepG2 cells. Briefly: MTT cytotoxicity assay on HepG2 cells. The settings on record: Homo sapiens. It is filed as cell-based. The protocol: MTT-based cell viability assay was carried out to evaluate the antiproliferation potential of the target compounds on HCC cell lines (HepG2 and Huh7). The half maximal inhibitory concentration (IC50) values were calculated against DMSO non-treated HepG2 cells (negative control) and Dox-treated HepG2 cells (positive control). The assay was conducted using 3-(4, 5-di-MethylThiazol-2-yl)-2,5-diphenyl Tetrazolium bromide (MTT) to test cell viability, according to the method described by Mosmann with minor changes. The yellow MTT is reduced in the viable cells to purple formazan. The insoluble formazan is solubilized by DMSO to colored solution measured spectrophotometrically. Briefly, cells were seeded in a 96-well plate at density of 1 × 10^4 cells/well for 24 h in 5% CO2 incubator at 37 °C to allow their adherence. […] After incubation, 20 μL of a 5 mg/mL MTT solution were mixed with the contents of each well, and the plate was incubated for another 4 h. Then, the medium was suctioned, and the wells were washed with PBS. After 2 h of drying, 200 μL of DMSO was added to each well. The plate was set on a shaker to dissolve the formazan crystals. Then, the absorbance was measured spectrophotometrically at 570 nm with a reference wavelength of 630 nm using ELX800 UV universal microplate reader (BioTek Instruments Inc., VT, Santa Clara, CA, USA).
All experiment conditions were tested in three replicates. The % cell viability was calculated from the following equation: (mean absorbance of treated sample/mean absorbance of negative control sample) × 100. The % death rate = 100 -% cell viability, and the inhibitory concentration of 50% (IC50) was measured from the exponential curve of viability against concentration (dose–response curve).

Series [1] concerns B-Cell Lymphoma-2 (Bcl-2). Briefly: Bcl-2 level in HepG2 cell lysate (ELISA). The settings on record: HepG2 treated at IC50, 48 h. It is filed as cell-based, human. As for the experimental part: as §1
(§2) Levels of EGFR [37] and heparanase in cell lysate were investigated using commercially available enzyme-linked immunosorbent assay (ELISA) kits supplied by Abcam (Cat. No. ab269558, ab256401, respectively). Levels of uPA [39] were measured using ELISA kit supplied by Creative Diagnostics (New York, USA, Cat. No. DEIA1630). Bcl-2 levels were determined using ELISA kit supplied by Zymed Laboratories, Carlsbad, California (Cat. No. 99-0042). Briefly, standards and samples were added to corresponding 96-well plate coated with suitable antibody. After the washing step, biotinylated anti-human antibody was added to each well. After washing away unbound biotinylated antibody, horseradish peroxidase (HRP)-conjugated streptavidin was pipetted into each well. A peroxidase substrate solution was added to all wells, after washing, and the color developed was proportionate to the amount of EGFR bound. Finally, the stop solution was added and the color intensity was measured at 450 nm.

The subject of a further series is RPE1 cells. In words: In vitro safety/cell viability MTT assay on normal RPE1 cells. In kind it is cell-based, human. To be noted: RPE1, MTT, in words.
Experiment in series [2]: as above
In kind it is cell-based, human. To be noted: human, RPE1 cells (noncancerous), normal RPE1 cells, MTT.

Another series deals with EGFR. Briefly: EGFR level in HepG2 cell lysate (ELISA). In kind it is cell-based, human. To be noted: HepG2 treated at IC50, 48 h. As for the experimental part: as §1, §2
[3] abbreviates: 14 days after single dose, compounds 250 mg/kg oral, doxorubicin 15 mg/kg I.P.
Where [4] appears, read: 14 days, compounds 250 mg/kg oral, Dox 15 mg/kg i.p.

Data on one compound can be found in publication PMC8945686, “Anticancer Effects with Molecular Docking Confirmation of Newly Synthesized Isatin Sulfonamide Molecular Hybrid Derivatives against Hepatic Cancer Cell Lines” (Biomedicines, 2022).

Values joined by “and” are separate entries in the source; they are usually repeats but may differ in a detail not shown here. Equal values may be shown once. A value given as a limit tells only on which side of the number the result lay.

Turning to `CC(=O)Nc1cccc(C(=O)C=C2C(=O)Nc3ccc(S(=O)(=O)N4CCCCC4)cc32)c1` [Compound 4c, N-(3-(2-(2-oxo-5-(piperidin-1-ylsulfonyl)indolin-3-ylidene)acetyl)phenyl)acetamide], in the series on glutathione (GSH), the “GSH level in cell lysate” value is 2.1 ± 0.3 ^b* µmol/mg protein. Also, in the series with mice (setting [3]), the S.ALT is on record as 28.41 ± 0.28 ^^ U/L, the S.AST is given as 37.35 ± 1.47 ^^ U/L, the S.Creatinine is on record as 0.79 ± 0.04 ^^ mg/dL and the S.D.Bilirubin is given as 0.16 ± 0.007 ^^ mg/dL. Further, in the series on mice (setting [3]), the S.T.Bilirubin was 0.73 ± 0.014 ^^ mg/dL and the S.Urea is given as 55.76 ± 5.64 ^^ mg/dL. In addition, in the series with mice (setting [4]), the “Histopathology of liver and kidney tissues (H and E) versus control groups” value was “no differences in the hepatic or renal tissue structures”; the “Kidney histology (H and E photomicrographs)” value is reported as “almost intact well-organized morphological features”; the “Liver histology (H and E photomicrographs)” value is reported as “almost intact histological features of hepatic parenchyma”. In addition, the “Survival over the treatment period (14 days)” value in the series on mice (single acute oral dose of 250 mg/kg) is “survived”. Further, the “Physical or abnormal changes (body weight, skin, fur, eyes, behavior, overall appearance)” value in the series with mice (single acute oral dose of 250 mg/kg, 14 days) is “No physical or abnormal changes were observed”. The cytotoxicity at 100 ppm in the series with HepG2 cells (48 h, 100 p.p.m (μg/mL), read-out: % Death Rate at 100 p.p.m (μg/mL) HepG2) amounted to 95.6%. Further, the IC50 with HepG2 cells (HepG2, 48 h) is approximately 39.7 µM. For the same compound, the “Bcl-2 level in cell lysate” value in series [1] is 3.6 ± 0.11 nmol/mg protein and 3.6 ± 0.11 ^a*^,b* nmol/mg protein. The “Effect towards the noncancerous cell line (RPE1)” value in the series on RPE1 cells is given as “non-cytotoxic effect”. The compound further came in with a 50% cytotoxic concentration (CC50) at 48 h in series [2] of more than 100 µM. For the same compound, the viability at 48 h, 100 p.p.m (μg/mL) in series [2] (100 p.p.m (μg/mL)) was found to be 80.7%. Also, the “EGFR level in cell lysate” value in the series with EGFR was 54 ± 2.4 ^a*^,b* pmol/mg protein.
